According to patent US6635621B1, “Cysteine protease inhibitors” (Naeja Pharmaceutical Inc., priority 1999, dated 2003):

What was measured:
cathepsin K = molecular target: T1, cathepsin K (Homo sapiens, UniProt P43235); test: In vitro assay for inhibition of cathepsin K; format: biochemical; conditions: r cathepsin K, substrate N-CBZ-Phe-Arg-AMC, pH 5.5, 10 min incubation at room temperature
T1 sequence (P43235 115-329): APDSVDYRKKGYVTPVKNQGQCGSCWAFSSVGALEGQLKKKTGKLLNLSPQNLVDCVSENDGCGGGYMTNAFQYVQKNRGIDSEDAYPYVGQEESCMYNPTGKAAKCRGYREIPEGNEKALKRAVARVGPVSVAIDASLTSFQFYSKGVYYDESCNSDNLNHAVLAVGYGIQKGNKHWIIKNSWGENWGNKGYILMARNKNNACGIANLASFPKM
Experimental: In Vitro Assay Procedure for Cathepsin K
(§1) To a 170 μl of enzyme-buffer mixture (enzyme: r cathepsin K, diluted to give approximate 30 F units/min, buffer: 100 mM sodium acetate, 5 mM EDTA, 20 mM L-cysteine, 0.01% Brij, pH 5.5) a 10 μL of inhibitor (dissolved in DMSO) was added. After 10 min of incubation at room temperature, a 20 μl of 2.7 mM substrate (N-CBZ-Phe-Arg-AMC, dissolved in DMSO) was added to initiate reaction. Reading is followed up for 10 min at the fluoroscan II plate reader (excitation at 380 nm emission at 460 nm).
(§2) A plot of percentage of inhibition vs inhibitor concentration is obtained, and IC50 is determined using a linear regression calculations (concentration of inhibitor which will give 50% inhibition).

cathepsin S = cathepsin S (Homo sapiens, UniProt P25774); test: In vitro assay for inhibition of cathepsin S; format: biochemical; conditions: r cathepsin S, substrate N-CBZ-Val-Val-Arg-AMC, pH 6.5, 10 min incubation at room temperature
cathepsin S, sequence (P25774 115-331, species assumed): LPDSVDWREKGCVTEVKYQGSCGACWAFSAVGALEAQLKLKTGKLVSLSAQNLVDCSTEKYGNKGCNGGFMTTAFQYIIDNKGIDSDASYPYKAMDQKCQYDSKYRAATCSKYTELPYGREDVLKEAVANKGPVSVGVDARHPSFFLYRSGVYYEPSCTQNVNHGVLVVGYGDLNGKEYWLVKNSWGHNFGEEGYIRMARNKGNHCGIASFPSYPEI
Experimental: In Vitro Assay Procedure for Cathepsin S
as §1, with “S,” for “K,”, “phosphate, 1 mM EDTA,” for “acetate,”, “DTT,” for “EDTA, 20 mM L-cysteine,”, “6.5)” for “5.5)”, “1.2” for “2.7”, “(N-CBZ-Val-Val-Arg-AMC,” for “(N-CBZ-Phe-Arg-AMC,”
as §2

rat cathepsin B = rat cathepsin B (Rattus norvegicus, UniProt P00787); test: In vitro assay for inhibition of cathepsin B; format: biochemical; conditions: r rat cathepsin B, substrate N-CBZ-Phe-Arg-AMC, pH 5.1, 10 min incubation at room temperature
rat cathepsin B, sequence (P00787 80-333): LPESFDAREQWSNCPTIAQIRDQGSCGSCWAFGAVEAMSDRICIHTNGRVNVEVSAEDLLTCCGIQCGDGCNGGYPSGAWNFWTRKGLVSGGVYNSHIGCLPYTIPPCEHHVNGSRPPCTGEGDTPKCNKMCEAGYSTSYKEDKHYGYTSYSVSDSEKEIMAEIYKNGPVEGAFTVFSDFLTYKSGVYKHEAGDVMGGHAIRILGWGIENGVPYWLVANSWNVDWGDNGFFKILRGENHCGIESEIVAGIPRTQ
Experimental: In Vitro Assay Procedure for Cathepsin B
The compounds of formula I were tested for inhibition of cathepsin B using the known method (A. J. Barret et al., Biochem. J. 1982, 201, 189-198). To a 170 μl of enzyme-buffer mixture (enzyme: r rat cathepsin B, diluted to give approximate 10 F units/min, buffer: 56 mM sodium acetate, 1.124 mM EDTA, 10 mM DTT, pH 5.1) a 10 μL of inhibitor (dissolved in DMSO) was added. After 10 min of incubation at room temperature, a 20 μl of 5 mM substrate (N-CBZ-Phe-Arg-AMC, dissolved in DMSO) was added to initiate reaction. Reading is followed up for 10 min at the fluoroscan reader (excitation at 380 nm emission at 460 nm).
as §2

rat cathepsin L = rat cathepsin L (Rattus norvegicus, UniProt P07154); test: In vitro assay for inhibition of cathepsin L; format: biochemical; conditions: r rat cathepsin L, substrate N-CBZ-Phe-Arg-AMC, pH 5.0, 10 min incubation at room temperature
rat cathepsin L, sequence (P07154 114-334): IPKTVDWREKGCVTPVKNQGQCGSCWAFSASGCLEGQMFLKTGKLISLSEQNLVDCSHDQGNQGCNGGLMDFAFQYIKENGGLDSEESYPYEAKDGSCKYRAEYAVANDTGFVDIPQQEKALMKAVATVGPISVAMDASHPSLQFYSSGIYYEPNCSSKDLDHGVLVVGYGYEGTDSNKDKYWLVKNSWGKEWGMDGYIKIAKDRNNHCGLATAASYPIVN
Experimental: In Vitro Assay Procedure for Cathepsin L
To a 170 μl of enzyme-buffer mixture (enzyme: r rat cathepsin L, diluted to give approximate 15 F units/min, buffer: 58.8 mM sodium citrate, 1.18 mM EDTA, 235 mM sodium chloride, 5 mM […], pH 5.0) a 10 μL of inhibitor (dissolved in DMSO) was added. After 10 min of incubation at room temperature, a 20 μl of 1 mM substrate (N-CBZ-Phe-Arg-AMC, dissolved in DMSO) was added to initiate reaction. Reading is followed up for 10 min at the fluoroscan reader (excitation at 380 nm emission at 460 nm).
as §2

## NC=C(NC(=O)[C@H](Cc1ccccc1)NC(=O)CCc1ccccc1)C(N)=O [Example 4, 2-[2S-2-(3-Phenylpropionoyl)amino-2-benzyl-acetamido]-3-amino-acrylamide]
Cathepsin K
  IC50: 1.2 µM
other
  melting point: 75 to 80 °C
Cathepsin S
  IC50: 0.0087 µM
Rat cathepsin B
  IC50: 2.63 µM
Rat cathepsin L
  IC50: 0.015 µM

## CC(C)C[C@H](NC(=O)OCc1ccccc1)C(=O)NC(C(N)=O)C(O)O (stereo partly drawn) [Example 11, 2-(2S-2-Benzyloxycarbonylamino-2-isopropylmethyl-acetamido)-3,3-dihydroxy-propionamide]
Cathepsin K
  IC50: 0.014 µM
other
  melting point: 86 to 90 °C
Cathepsin S
  IC50: 0.015 µM
Rat cathepsin B
  IC50: 2.4 µM
Rat cathepsin L
  IC50: 0.11 µM

## CC(C)C[C@H](NC(=O)OCc1ccccc1)C(=O)NC(=CN1CCOCC1)C(N)=O [Example 6, 2-(2S-2-Benzyloxycarbonylamino-2-isopropylmethyl-acetamido)-3-(morpholin-4-yl)-acrylamide]
Cathepsin K
  IC50: 0.003 µM
other
  melting point: 120 to 130 °C
Cathepsin S
  IC50: 0.05 µM
Rat cathepsin B
  IC50: 0.37 µM
Rat cathepsin L
  IC50: 0.075 µM

## NC=C(NC(=O)[C@H](Cc1ccccc1)NC(=O)OCc1ccccc1)C(N)=O [Example 3, 2-(2S-2-Benzyloxycarbonylamino-2-benzyl-acetamido)-3-amino-acrylamide]
Cathepsin K
  IC50: 0.23 µM
other
  melting point: 127 to 135 °C
Cathepsin S
  IC50: 0.26 µM
Rat cathepsin B
  IC50: 1.42 µM
Rat cathepsin L
  IC50: 0.0055 µM

## CC(C)C[C@H](NC(=O)OCc1ccccc1)C(=O)N/C(=C/O)C(N)=O [Example 15, 2-(2S-2-Benzyloxycarbonylamino-2-isopropylmethyl-acetamido)-3-hydroxy-acrylamide]
Cathepsin K
  IC50: 0.018 µM
other
  melting point: 105 to 115 °C
Cathepsin S
  IC50: 0.075 µM
Rat cathepsin B
  IC50: 9.5 µM
Rat cathepsin L
  IC50: 0.17 µM

## CC(=O)N/C=C(/NC(=O)[C@H](CC(C)C)NC(=O)OCc1ccccc1)C(N)=O [Example 10a, (2E)-(2S-2-Benzyloxycarbonylamino-2-isopropylmethyl-acetamido)-3-acetamido-acrylamide]
Cathepsin K
  IC50: 1.42 µM
other
  melting point: 73 to 76 °C
Cathepsin S
  IC50: 0.013 µM
Rat cathepsin B
  IC50: 45.2 µM
Rat cathepsin L
  IC50: 8.62 µM

## CC(C)C[C@H](NC(=O)OCc1ccccc1)C(=O)NC(=CNCCO)C(N)=O [Example 7, 2-(2S-2-Benzyloxycarbonylamnino-2-isopropylmnethyl-acetamido)-3-(2-hydroxyethylamnino)-acrylamide]
Cathepsin K
  IC50: 0.012 µM
other
  melting point: 89 to 92 °C
Cathepsin S
  IC50: 0.18 µM
Rat cathepsin B
  IC50: 1.96 µM
Rat cathepsin L
  IC50: 0.23 µM

## CC(=O)N/C=C(/NC(=O)[C@H](CC1CCCCC1)NC(=O)OCc1ccccc1)C(N)=O [Example 19a, (2E)-(2S-2-Benzyloxycarbonylamino-2-cyclohexymethyl-acetamido)-3-acetamido-acrylamide]
Cathepsin K
  IC50: > 58 µM
other
  melting point: 140 to 142 °C
Cathepsin S
  IC50: 1.86 µM
Rat cathepsin B
  IC50: > 58 µM
Rat cathepsin L
  IC50: > 58 µM

## NC=C(NC(=O)[C@H](CC1CCCCC1)NC(=O)OCc1ccccc1)C(N)=O [Example 2, 2-(2S-2-Benzyloxycarbonylamino-2-cyclohexylmethyl-acetamido)-3-amino-acrylamide]
Cathepsin K
  IC50: 1.78 µM
other
  melting point: 80 to 85 °C
Cathepsin S
  IC50: 0.026 µM
Rat cathepsin B
  IC50: 1.17 µM
Rat cathepsin L
  IC50: 0.072 µM

## NC(=O)C(NC(=O)[C@H](Cc1ccccc1)NC(=O)CCc1ccccc1)C(O)O (stereo partly drawn) [Example 14, 2-[2S-2-(3-Phenylpropionoylamino)-2-benzyl-acetamido]-3,3-dihydroxy-propionamide]
Cathepsin K
  IC50: 1.13 µM
other
  melting point: 105 to 110 °C
Cathepsin S
  IC50: 0.004 µM
Rat cathepsin B
  IC50: 0.98 µM
Rat cathepsin L
  IC50: 0.004 µM

## CC(C)C[C@H](NC(=O)OCc1ccccc1)C(=O)NC(=CN)C(N)=O [Example 1, 2-(2S-2-Benzyloxycarbonylamino-2-isopropylmethyl-acetamido)-3-amino-acrylamide]
Cathepsin K
  IC50: 0.011 µM
other
  melting point: 80 to 90 °C
Cathepsin S
  IC50: 0.069 µM
Rat cathepsin B
  IC50: 4.35 µM
Rat cathepsin L
  IC50: 0.094 µM

## CC(C)C[C@H](NC(=O)OCc1ccccc1)C(=O)NC(=CNCc1ccccc1)C(N)=O [Example 5, 2-(2S-2-Benzyloxycarbonylamino-2-isopropylmethyl-acetamido)-3-benzylamino-acrylamide]
Cathepsin K
  IC50: 0.0031 µM
other
  melting point: 115 to 120 °C
Cathepsin S
  IC50: 0.061 µM
Rat cathepsin B
  IC50: 2.28 µM
Rat cathepsin L
  IC50: 0.064 µM

## CC(C)C[C@H](NC(=O)OCc1ccccc1)C(=O)NC(=CNc1ccccc1)C(N)=O [Example 8, 2-(2S-2-Benzyloxycarbonylamino-2-isoproplmethyl-acetamido)-3-phenylamino-acrylamide]
Cathepsin K
  IC50: 0.33 µM
other
  melting point: 199 to 200 °C
Cathepsin S
  IC50: 6.9 µM
Rat cathepsin B
  IC50: 37.1 µM
Rat cathepsin L
  IC50: 2.36 µM

## CC(C)C[C@H](NC(=O)OCc1ccccc1)C(=O)N/C(=C\N1CCN(C)CC1)C(N)=O [Example 17, 2-(2S-2-Benzyloxycarbonylamino-2-isopropylmethyl-acetamido)-3-(4-methylpiperazino)-acrylamide]
Cathepsin K
  IC50: 0.019 µM
other
  melting point: 93.5 to 95 °C
Cathepsin S
  IC50: 0.18 µM
Rat cathepsin B
  IC50: 1.9 µM
Rat cathepsin L
  IC50: 0.23 µM

## CC(C)C[C@H](NC(=O)OCc1ccccc1)C(=O)N/C(=C\N1CCCCC1)C(N)=O [Example 9, 2-(2S-2-Benzyloxycarbonylamino-2-isopropylmethyl-acetamido)-3-piperidino-acrylamide]
Cathepsin K
  IC50: 0.014 µM
other
  melting point: 99 to 103 °C
Cathepsin S
  IC50: 0.05 µM
Rat cathepsin B
  IC50: 0.89 µM
Rat cathepsin L
  IC50: 0.062 µM
